A value given as a limit tells only on which side of the number the result lay.

Data set [1] has as its target T1, human pancreatic α-amylase (HPA) (Homo sapiens, UniProt P04746).
T1 sequence (P04746 16-511): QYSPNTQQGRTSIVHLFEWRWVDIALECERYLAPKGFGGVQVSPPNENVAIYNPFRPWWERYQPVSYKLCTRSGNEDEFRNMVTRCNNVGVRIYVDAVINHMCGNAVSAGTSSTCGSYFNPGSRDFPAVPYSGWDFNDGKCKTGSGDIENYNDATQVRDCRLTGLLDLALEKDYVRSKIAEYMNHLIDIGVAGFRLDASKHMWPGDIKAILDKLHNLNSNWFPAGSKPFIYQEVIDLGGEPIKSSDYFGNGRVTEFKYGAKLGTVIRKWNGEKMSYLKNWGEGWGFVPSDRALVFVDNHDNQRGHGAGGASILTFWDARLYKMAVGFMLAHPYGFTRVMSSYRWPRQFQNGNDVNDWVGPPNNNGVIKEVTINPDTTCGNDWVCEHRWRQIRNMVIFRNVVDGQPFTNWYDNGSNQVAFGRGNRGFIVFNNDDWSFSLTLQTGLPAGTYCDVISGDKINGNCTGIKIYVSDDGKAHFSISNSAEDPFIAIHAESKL
Kind of data set: Kinetic analysis of HPA inhibition. Type of data set: biochemical.

Data set [2] is described as follows: Stability in simulated intestinal fluid (SIF) by UPLC. The data set is classed as in vitro ADME. Particulars: positive control, 0.5 mg/ml, 37° C., 3 hours. As to the method: (§1) The stability of montbretin A in both simulated intestinal fluid (SIF) and simulated gastric fluid (SGF) were analyzed via ultra performance liquid chromatography (UPLC). The instrument consisted of a Waters® Acquity™ UPLC system equipped with a PDA and a TQ detector in tandem. The 2 μL sample injection volume was passed through a Waters® Acquity™ BEH C18 column (1.7 μm, 2.1×100 mm), with mobile phases A and B consisting of water with 0.1% formic acid and acetonitrile with 0.1% formic acid, respectively. The mobile phases were delivered at a programmed linear gradient at a column temperature of 35° C. Linearity was evaluated using a set of montbretin A calibration standards with concentrations ranging from 10 to 100 μg/mL in water. […]
(§2) To examine the gastrointestinal fluid activity, 0.5 mg/ml solutions of oleamide (positive control) in SGF or SIF were prepared by diluting a 100 μL aliquot of oleamide (50 mg/mL in 2-propanol) to 10 mL with either SGF or SIF and incubated in a 37° C. water bath for 1 or 3 hours, respectively. At time points of 1 or 3 hours, the sample was removed from the water bath and a 100 μL aliquot of the resulting solution was diluted to 1 mL with de-ionized water in a glass UPLC glass sample vial and analyzed by UPLC for oleamide content. […]

Data set [3] in a line: Stability in simulated gastric fluid (SGF) by UPLC. Type of data set: in vitro ADME. Particulars: positive control, 0.5 mg/ml, 37° C., 1 hour. As to the method: as §1, §2
Data set [4] is described as follows: Aqueous solubility (observation).
For data set [5], the target named is T2, porcine pancreatic α-amylase (Sus scrofa, UniProt P00690).
T2 sequence (P00690 16-511): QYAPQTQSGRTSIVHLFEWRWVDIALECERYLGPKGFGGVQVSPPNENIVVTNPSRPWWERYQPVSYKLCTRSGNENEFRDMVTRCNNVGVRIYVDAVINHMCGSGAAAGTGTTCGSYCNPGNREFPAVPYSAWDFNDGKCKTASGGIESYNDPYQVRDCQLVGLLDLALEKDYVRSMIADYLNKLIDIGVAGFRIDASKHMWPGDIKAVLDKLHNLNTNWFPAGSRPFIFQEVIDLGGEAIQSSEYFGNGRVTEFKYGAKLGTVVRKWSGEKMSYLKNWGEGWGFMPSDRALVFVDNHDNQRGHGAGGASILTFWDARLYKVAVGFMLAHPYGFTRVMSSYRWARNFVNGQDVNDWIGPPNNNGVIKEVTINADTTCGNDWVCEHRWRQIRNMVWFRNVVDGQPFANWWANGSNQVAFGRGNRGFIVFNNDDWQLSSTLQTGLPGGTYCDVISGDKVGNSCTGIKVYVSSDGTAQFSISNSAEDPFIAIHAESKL
Particulars: Taderal et al. 2006; read-out: IC50, inhibition of porcine pancreatic α-amylase; cited from earlier work.

A further data set addresses T3, human salivary α-amylase (Homo sapiens, UniProt P0DUB6).
T3 sequence (P0DUB6 16-511): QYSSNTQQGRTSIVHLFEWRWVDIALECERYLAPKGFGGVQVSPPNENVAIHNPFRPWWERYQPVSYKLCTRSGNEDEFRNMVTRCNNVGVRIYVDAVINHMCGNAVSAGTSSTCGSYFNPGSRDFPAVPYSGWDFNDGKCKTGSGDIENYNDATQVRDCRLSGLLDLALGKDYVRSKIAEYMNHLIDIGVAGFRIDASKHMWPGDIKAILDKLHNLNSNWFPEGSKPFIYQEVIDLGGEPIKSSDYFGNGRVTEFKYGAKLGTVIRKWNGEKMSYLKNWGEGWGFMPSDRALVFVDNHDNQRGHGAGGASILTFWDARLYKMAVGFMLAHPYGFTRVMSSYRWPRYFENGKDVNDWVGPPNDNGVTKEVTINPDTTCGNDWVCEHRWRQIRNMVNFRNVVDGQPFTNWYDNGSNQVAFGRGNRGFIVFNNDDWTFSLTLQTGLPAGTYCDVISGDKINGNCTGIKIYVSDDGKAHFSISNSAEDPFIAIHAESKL
Particulars: Lo Piparo et al., J. Med. Chem. 2008; read-out: IC50, inhibition of human salivary α-amylase; cited from earlier work.

For data set [6], the system named is control and STZ-diabetic rats. Kind of data set: Acute starch tolerance test. The data set is classed as in vivo, rat. The following applies: STZ-diabetic rats, starch tolerance test; extracts 5 mg/kg. The protocol: Twenty-four animals were obtained at 200-250 g of body weight and randomly divided into control and diabetic groups. Diabetes was induced by a single intravenous tail vein injection of streptozotocin 60 mg/kg in 0.9% normal saline. Control rats received normal saline injections only. Animals were subsequently divided into acarbose untreated and treated. […] Starch was obtained from Fisher Scientific and a 17.5% suspension was made in distilled water. The dose of starch given was […].
The animals were fasted overnight. A basal blood sample was collected (50 μl volume) and then at 30, 60, 90 and 120 minutes post drug administration. Starch and starch+acarbose was administered by oral gavage. Blood was centrifuged at 10,000 g×25 minutes and plasma collected for determination of glucose levels using a Beckman Glucose Analyzer II™. There was no difference in body weight among the groups. There was a significant increase in plasma glucose 30 and 60 minutes following starch administration in the diabetic untreated group only.
The twenty-four animals from Example 6 were used following a wash out period of one week. Animals were divided into montbretin A untreated and treated. The four treatment groups were: control, n=6, control+montbretin A, n=6, diabetic, n=6 and diabetic+montbretin A, n=6. The procedures used in Example 6 were employed. Montbretin A was dissolved in distilled water at a concentration of 10 mg/ml and given at a volume of 1 ml/kg. The dose of montbretin A given was 10 mg/kg. There was no difference in body weight among the groups. There was a significant increase in plasma glucose levels in the diabetic untreated group at 30 and 60 minutes following starch administration.
A study was done to determine the effect of various amounts of montbretin A and montbretin extracts on plasma glucose levels in response to a starch challenge in STZ-diabetic rats. Diabetic animals used in the previous Examples were used following a wash out period of one week. The six experimental groups were: diabetic (D, n=3) diabetic+montbretin A (5 mg/kg), (DT5, n=3), diabetic+montbretin A (1 mg/kg), (DT1, n=3), diabetic+montbretin A (0.5 mg/kg), (DT0.5, n=3), diabetic+Crocosmia corm methanol extract (5 mg/kg), (DM, n=3) and diabetic+Crocosmia corm ethanol extract (5 mg/kg), (DE, n=2).
Montbretin A was dissolved in distilled water at a concentration of 5, 1 or 0.5 mg/ml and given at a volume of 1 ml/kg. The methanol extract contained montbretin A at a concentration of 3.2 mg/ml and ethanol extract at a concentration of 1.6 mg/ml. These extracts were dried and resuspended in distilled water. There was no difference in body weight among the groups. […] Diarrhea occurred in 2 out 3 animals given the methanol extract and in 1 out of 2 animals given the ethanol extract. […]

[7] abbreviates: range finder method, Dixon plot, fixed substrate concentration.

Regarding `CC1O[C@@H](O[C@@H]2CO[C@@H](Oc3c(O)cc(-c4oc5cc(O)cc(O)c5c(=O)c4O[C@@H]4OC(C)[C@H](O)[C@H](O)C4O[C@@H]4OC(COC(=O)/C=C/c5ccc(O)cc5)[C@@H](O)[C@@H](O)C4O[C@@H]4OC(CO)[C@@H](O)[C@@H](O)C4O)cc3O)C(O)[C@@H]2O)C(O)[C@@H](O)[C@H]1O` (some centres unmarked) [Montbretin B, montbretin B], in data set [1] (setting [7]), the Ki stood at 3.6 ± 0.1 µM.

For the compound `CCCCCCCC/C=C\CCCCCCCC(N)=O` [Oleamide, oleamide, reference compound], in data set [2], the “change of concentration after incubation in SIF” value is “significant decrease in concentration”. The “change of concentration after incubation in SGF” value in data set [3] is reported as “significant decrease in concentration”.

As for `CCOC(=O)/C=C/c1ccc(O)c(O)c1` [ethyl caffeiate, reference compound], the “mode of inhibition of HPA” value in data set [1] (double reciprocal plot) is recorded as “non-competitive”. Further, in data set [1] (varied substrate and inhibitor concentrations, GraFit), the Ki is 1300 ± 100 µM. Further, in data set [4], the aqueous solubility result is recorded as “limited aqueous solubility”.

With `O=c1c(O)c(-c2cc(O)c(O)c(O)c2)oc2cc(O)cc(O)c12` [myricetin], the IC50 is 380 µM in data set [5] and over 9 µM at human salivary α-amylase. In data set [4], the aqueous solubility entry is recorded as “limited aqueous solubility”.

Take montbretin A: the occurrence of diarrhea entry in data set [6] is on record as “No diarrhea”.

In turn, montbretin C yielded a Ki in data set [1] (setting [7]) of 6.1 ± 0.1 µM.
